# Measured values taken from patent publication US20050136079A1, “Cosmetic compositions containing fullerene clusters” (priority 2003, published 2005).
# Assay: Antioxidant activity (AOA) by coulometric titration with electrogenerated bromine-based oxidants
# Settings: Coulombs spent for titration of 100 g of analyzed material; sample macerated 1:5 in water or water/alcohol
# Protocol: The quantitative assessment of the antioxidant activity of the cosmetic composition containing fullerene clusters was tested utilizing bromine-based oxidants generated electrochemically.
# Procedure: • 1. Electrogeneration of bromine-based oxidants and coulonometric tritration were performed with a potentiostate using 1 cm^2 platinum working electrode at a current 5 mA • 2. Bromine oxidant was generated 0.2 M KBr dissolved in 0.1M H2SO4/tartrate buffer solution, which ensure 100% yield of oxidant by current. The final point was determined amperometrically with two polarized platinum electrodes at E=20 mV. • 3. Samples for analysis in water or water/alcohol media were obtained by maceration of the mixture of a cosmetic containing the active ingredient listed in the following table and this media taken in proporation 1:5 by weight. • 4. Antioxidant activity (AOA) is expressed as amount of Coulombs spent for titration of 100 g of the analyzed starting cosmetic substance.
# Bromine compounds including Br2, Br3^− and active bromo-radicals are electrochemically generated and adsorbed at the surface of the platinum electrode and then these radicals act as oxidating agents in redox reactions, reactions of electrophilic substitution and addition to double bonds e.g. in the fullerene molecules in the fullerene cluster of cosmetic composition. […]
compound,measurement,value
"CCCCC/C=C\C/C=C\CCCCCCCC(=O)O [Linoleic Acid without C60, Linoleic Acid]",AOA,4.8 kCb/100 g
